± gives the expanded uncertainty stated by the source.
Assay: xn = mol fraction of the nth substance listed
Conditions: 101.33 kPa, Liquid

CC(Cl)(Cl)Cl [1,1,1-trichloroethane] + CCCCCCCO
Conditions	mass density, 293.15 K [kg/m3]	mass density, 298.15 K [kg/m3]	mass density, 303.15 K [kg/m3]	viscosity, 293.15 K [mPa·s]	viscosity, 298.15 K [mPa·s]	viscosity, 303.15 K [mPa·s]
x2 = 0.103	1252.2 ± 0.93	1244.75 ± 0.91	1237.24 ± 0.9	–	–	–
x2 = 0.1048	–	–	–	0.996 ± 0.014	0.914 ± 0.013	0.858 ± 0.012
x2 = 0.1615	1214.95 ± 0.86	1207.9 ± 0.85	1200.8 ± 0.84	–	–	–
x2 = 0.2027	–	–	–	1.224 ± 0.017	1.11 ± 0.015	1.014 ± 0.014
x2 = 0.2047	1188.54 ± 0.82	1181.77 ± 0.81	1174.93 ± 0.8	–	–	–
x2 = 0.2545	1159.2 ± 0.77	1152.74 ± 0.76	1146.2 ± 0.75	–	–	–
x2 = 0.3034	–	–	–	1.529 ± 0.021	1.379 ± 0.019	1.245 ± 0.017
x2 = 0.309	1128.37 ± 0.73	1122.23 ± 0.72	1116.01 ± 0.71	–	–	–
x2 = 0.3514	1105.21 ± 0.7	1099.32 ± 0.69	1093.32 ± 0.68	–	–	–
x2 = 0.3542	–	–	–	1.714 ± 0.023	1.539 ± 0.021	1.388 ± 0.019
x2 = 0.398	–	–	–	1.895 ± 0.025	1.699 ± 0.023	1.526 ± 0.021
x2 = 0.4022	1078.45 ± 0.67	1072.77 ± 0.66	1067.06 ± 0.65	–	–	–
x2 = 0.5016	1028.73 ± 0.62	1023.53 ± 0.61	1018.27 ± 0.6	–	–	–
x2 = 0.503	–	–	–	2.426 ± 0.033	2.14 ± 0.029	1.907 ± 0.026
x2 = 0.5509	1005.32 ± 0.58	1000.35 ± 0.57	995.29 ± 0.57	–	–	–
x2 = 0.5533	–	–	–	2.729 ± 0.036	2.393 ± 0.032	2.127 ± 0.029
x2 = 0.58	991.84 ± 0.57	986.98 ± 0.57	982.04 ± 0.57	–	–	–
x2 = 0.5993	–	–	–	3.043 ± 0.041	2.664 ± 0.036	2.353 ± 0.032
x2 = 0.6573	957.28 ± 0.56	952.71 ± 0.57	948.09 ± 0.57	–	–	–
x2 = 0.6724	950.85 ± 0.56	946.34 ± 0.57	941.77 ± 0.57	–	–	–
x2 = 0.6811	–	–	–	3.69 ± 0.049	3.196 ± 0.043	2.791 ± 0.038
x2 = 0.7416	–	–	–	4.217 ± 0.057	3.629 ± 0.049	3.141 ± 0.043
x2 = 0.7421	921.42 ± 0.58	917.17 ± 0.58	912.86 ± 0.58	–	–	–
x2 = 0.7937	900.46 ± 0.59	896.37 ± 0.59	892.23 ± 0.59	–	–	–
x2 = 0.7956	–	–	–	4.783 ± 0.064	4.09 ± 0.056	3.495 ± 0.048
x2 = 0.8459	879.86 ± 0.6	875.95 ± 0.61	871.97 ± 0.61	–	–	–
x2 = 0.9003	–	–	–	5.912 ± 0.077	5.018 ± 0.068	4.297 ± 0.059
x2 = 0.9027	858.15 ± 0.62	854.41 ± 0.63	850.61 ± 0.63	–	–	–

ClC=C(Cl)Cl [trichloroethene] + CCCCCCCO
Conditions	mass density, 293.15 K [kg/m3]	mass density, 298.15 K [kg/m3]	mass density, 303.15 K [kg/m3]	viscosity, 293.15 K [mPa·s]	viscosity, 298.15 K [mPa·s]	viscosity, 303.15 K [mPa·s]
x2 = 0.0507	1412.78 ± 1.2	1404.82 ± 1.2	1396.73 ± 1.2	–	–	–
x2 = 0.0927	–	–	–	0.671 ± 0.01	0.635 ± 0.009	0.6 ± 0.009
x2 = 0.0992	1367.53 ± 1.1	1359.9 ± 1.1	1352.18 ± 1.1	–	–	–
x2 = 0.1569	1317.05 ± 1.1	1309.82 ± 1	1302.52 ± 1	–	–	–
x2 = 0.201	–	–	–	0.883 ± 0.012	0.826 ± 0.012	0.763 ± 0.011
x2 = 0.2026	1279.18 ± 0.99	1272.23 ± 0.97	1265.25 ± 0.96	–	–	–
x2 = 0.2558	1237.46 ± 0.92	1230.87 ± 0.91	1224.15 ± 0.89	–	–	–
x2 = 0.256	–	–	–	1.017 ± 0.014	0.949 ± 0.013	0.875 ± 0.012
x2 = 0.304	–	–	–	1.158 ± 0.016	1.073 ± 0.015	0.989 ± 0.014
x2 = 0.3109	1196.47 ± 0.85	1190.18 ± 0.84	1183.85 ± 0.83	–	–	–
x2 = 0.3618	1160.63 ± 0.8	1154.67 ± 0.79	1148.63 ± 0.78	–	–	–
x2 = 0.3997	1134.97 ± 0.77	1129.21 ± 0.76	1123.37 ± 0.75	–	–	–
x2 = 0.4057	–	–	–	1.535 ± 0.021	1.397 ± 0.019	1.28 ± 0.017
x2 = 0.43	1115.18 ± 0.74	1109.55 ± 0.73	1103.85 ± 0.72	–	–	–
x2 = 0.5098	–	–	–	2.05 ± 0.027	1.838 ± 0.025	1.662 ± 0.022
x2 = 0.51	1065.33 ± 0.68	1060.09 ± 0.68	1054.79 ± 0.67	–	–	–
x2 = 0.5508	–	–	–	2.307 ± 0.031	2.046 ± 0.027	1.839 ± 0.025
x2 = 0.5514	1040.91 ± 0.64	1035.82 ± 0.63	1030.7 ± 0.62	–	–	–
x2 = 0.6022	–	–	–	2.648 ± 0.036	2.342 ± 0.031	2.082 ± 0.028
x2 = 0.6149	1005.06 ± 0.58	1000.28 ± 0.57	995.43 ± 0.57	–	–	–
x2 = 0.6574	982.15 ± 0.56	977.54 ± 0.57	972.87 ± 0.57	–	–	–
x2 = 0.7071	956.39 ± 0.56	951.95 ± 0.57	947.47 ± 0.57	–	–	–
x2 = 0.7077	–	–	–	3.52 ± 0.048	3.065 ± 0.041	2.672 ± 0.036
x2 = 0.7571	931.38 ± 0.57	927.1 ± 0.57	922.8 ± 0.58	–	–	–
x2 = 0.8016	909.97 ± 0.58	905.84 ± 0.58	901.69 ± 0.59	–	–	–
x2 = 0.802	–	–	–	4.51 ± 0.061	3.865 ± 0.052	3.333 ± 0.045
x2 = 0.8699	–	–	–	5.313 ± 0.07	4.537 ± 0.061	3.89 ± 0.053
x2 = 0.8728	877.14 ± 0.61	873.27 ± 0.61	869.35 ± 0.61	–	–	–
x2 = 0.893	–	–	–	5.624 ± 0.073	4.804 ± 0.065	4.112 ± 0.057
x2 = 0.9405	847.47 ± 0.64	843.79 ± 0.64	840.09 ± 0.64	–	–	–

ClC(Cl)=C(Cl)Cl [tetrachloroethene] + CCCCCCCO
Conditions	mass density, 293.15 K [kg/m3]	mass density, 298.15 K [kg/m3]	mass density, 303.15 K [kg/m3]	viscosity, 293.15 K [mPa·s]	viscosity, 298.15 K [mPa·s]	viscosity, 303.15 K [mPa·s]
x2 = 0.0564	1560.55 ± 1.5	1552.56 ± 1.5	1544.51 ± 1.5	–	–	–
x2 = 0.098	1516.9 ± 1.4	1509.2 ± 1.4	1501.4 ± 1.4	–	–	–
x2 = 0.1052	–	–	–	1.064 ± 0.014	0.993 ± 0.013	0.961 ± 0.013
x2 = 0.152	1462.26 ± 1.3	1454.91 ± 1.3	1447.45 ± 1.3	–	–	–
x2 = 0.2	–	–	–	1.285 ± 0.017	1.186 ± 0.016	1.116 ± 0.015
x2 = 0.2001	1415.53 ± 1.2	1408.42 ± 1.2	1401.24 ± 1.2	–	–	–
x2 = 0.248	1370.53 ± 1.2	1363.81 ± 1.1	1356.93 ± 1.1	–	–	–
x2 = 0.2939	–	–	–	1.569 ± 0.021	1.441 ± 0.019	1.321 ± 0.018
x2 = 0.2944	1328.47 ± 1.1	1321.91 ± 1.1	1315.32 ± 1.1	–	–	–
x2 = 0.3527	1277.56 ± 1	1271.32 ± 1	1265.06 ± 0.99	–	–	–
x2 = 0.3983	1239.09 ± 0.96	1233.07 ± 0.95	1227.04 ± 0.94	–	–	–
x2 = 0.4073	–	–	–	2.024 ± 0.027	1.83 ± 0.024	1.661 ± 0.022
x2 = 0.4484	1198.21 ± 0.9	1192.43 ± 0.89	1186.64 ± 0.88	–	–	–
x2 = 0.4612	–	–	–	2.292 ± 0.03	2.05 ± 0.027	1.851 ± 0.025
x2 = 0.4982	–	–	–	2.509 ± 0.033	2.231 ± 0.03	2.002 ± 0.027
x2 = 0.5051	1153.53 ± 0.84	1148.07 ± 0.83	1142.54 ± 0.82	–	–	–
x2 = 0.5477	1121.03 ± 0.78	1115.76 ± 0.77	1110.45 ± 0.76	–	–	–
x2 = 0.55	–	–	–	2.827 ± 0.037	2.501 ± 0.033	2.222 ± 0.03
x2 = 0.5992	–	–	–	3.169 ± 0.042	2.798 ± 0.037	2.462 ± 0.033
x2 = 0.6002	1082.09 ± 0.7	1077.06 ± 0.69	1071.96 ± 0.69	–	–	–
x2 = 0.6503	1046.14 ± 0.64	1041.3 ± 0.63	1036.45 ± 0.62	–	–	–
x2 = 0.6926	–	–	–	3.922 ± 0.053	3.397 ± 0.046	2.958 ± 0.04
x2 = 0.7419	983.09 ± 0.56	978.66 ± 0.56	974.19 ± 0.56	–	–	–
x2 = 0.8016	943.84 ± 0.57	939.63 ± 0.57	935.38 ± 0.57	–	–	–
x2 = 0.8034	–	–	–	4.966 ± 0.066	4.249 ± 0.058	3.631 ± 0.05
x2 = 0.8533	910.96 ± 0.58	906.93 ± 0.58	902.87 ± 0.59	–	–	–
x2 = 0.8578	–	–	–	5.52 ± 0.072	4.704 ± 0.064	4.03 ± 0.056
x2 = 0.8961	–	–	–	5.942 ± 0.077	5.052 ± 0.068	4.324 ± 0.06
x2 = 0.8963	884.26 ± 0.6	880.43 ± 0.6	876.54 ± 0.61	–	–	–
x2 = 0.9453	854.68 ± 0.63	851.01 ± 0.63	847.3 ± 0.64	–	–	–

— the NIST ThermoML archive (doi:10.1021/je0501890)
